Measurements from ChEMBL document CHEMBL6092134, “N-acyl-4-arylaminopiperidines: Design and synthesis of a potential antimicrobial scaffold” (Bioorg Med Chem Lett, 2024).
pIC50: −log10 of the molar value.

Legend:
[1] = test system: Staphylococcus aureus; assay: Antibacterial activity against methicillin-resistant Staphylococcus aureus assessed as inhibition of bacterial growth at 50 uM by microdilution assay relative to control; assay type: functional
[2] = test system: Klebsiella pneumoniae; assay: Antibacterial activity against Klebsiella pneumoniae assessed as inhibition of bacterial growth at 50 uM by microdilution assay relative to control; assay type: functional
[3] = test system: Pseudomonas aeruginosa; assay: Antibacterial activity against Pseudomonas aeruginosa assessed as inhibition of bacterial growth at 50 uM by microdilution assay relative to control; assay type: functional
[4] = test system: Staphylococcus aureus; assay: Antibacterial activity against methicillin-resistant Staphylococcus aureus assessed as inhibition of bacterial growth by microdilution assay; assay type: functional, organism-based

Row | SMILES | inhibition at 50 µM [1] | inhibition at 50 µM [2] | inhibition at 50 µM [3] | pIC50 [4]
1 | COc1cc(/C=C/C(=O)N2CCC(Nc3cccc(Cl)c3)CC2)ccc1O | 0% | 0% | 14% | –
2 | O=C(/C=C/c1ccc2c(c1)OCCO2)N1CCC(Nc2ccc(Cl)cc2)CC1 | 24% | 19% | 10% | 4.22
3 | COc1cc(/C=C/C(=O)N2CCC(Nc3cccc4ccccc34)CC2)ccc1O | 0% | 0% | 0% | –
4 | COc1cc(/C=C/C(=O)N2CCC(Nc3ccc4c(c3)OCCO4)CC2)ccc1O | 3% | 23% | 0% | –
5 | COc1ccc(NC2CCN(C(=O)/C=C/c3ccc4c(c3)OCCO4)CC2)cc1 | 30% | 40% | 7% | –
6 | COc1cc(/C=C/C(=O)N2CCC(Nc3ccc(C(C)C)cc3)CC2)ccc1O | 0% | 20% | 25% | –
7 | O=C(/C=C/c1ccc2c(c1)OCCCO2)N1CCC(Nc2ccccc2)CC1 | 0% | 40% | 6% | –
8 | COc1cc(/C=C/C(=O)N2CCC(Nc3ccc(F)cc3)CC2)ccc1O | 0% | 0% | 0% | –
9 | CC(C)c1ccc(NC2CCN(C(=O)/C=C/c3ccccc3)CC2)cc1 | 42% | 27% | 20% | –
10 | COc1cc(/C=C/C(=O)N2CCC(Nc3ccccc3)CC2)ccc1O | 8% | 37% | 20% | –
11 | COc1cc(/C=C/C(=O)N2CCC(Nc3ccc(C)cc3)CC2)ccc1O | 0% | 49% | 6% | –
12 | O=C(/C=C/c1ccc2c(c1)OCO2)N1CCC(Nc2ccccc2)CC1 | 0% | 24% | 0% | –
13 | COc1cc(/C=C/C(=O)N2CCC(Nc3ccc(OC(F)(F)F)cc3)CC2)ccc1O | 0% | 0% | 16% | –
14 | O=C(/C=C/c1ccc2c(c1)OCCCO2)N1CCC(Nc2ccc(Cl)cc2)CC1 | 0% | 27% | 5% | –
15 | COc1ccc(NC2CCN(C(=O)/C=C/c3ccc4c(c3)OCO4)CC2)cc1 | 0% | 44% | 0% | –
16 | O=C(/C=C/c1ccccc1)N1CCC(Nc2ccccc2)CC1 | 36% | 0% | 0% | –
17 | O=C(/C=C/c1ccc2c(c1)OCO2)N1CCC(Nc2ccc(Cl)cc2)CC1 | 20% | 32% | 13% | –
18 | O=C(/C=C/c1ccc2c(c1)OCCO2)N1CCC(Nc2ccccc2)CC1 | 0% | 35% | 14% | –
19 | COc1cc(/C=C/C(=O)N2CCC(NCc3ccccc3)CC2)ccc1O | 0% | 41% | 0% | –
20 | COc1cc(/C=C/C(=O)N2CCC(Nc3ccc(Cl)cc3)CC2)ccc1O | 0% | 37% | 18% | –
21 | CC(C)c1ccc(NC2CCN(C(=O)/C=C/c3ccc4c(c3)OCCCO4)CC2)cc1 | 0% | 54% | 14% | –
22 | O=C(/C=C/c1ccccc1)N1CCC(Nc2ccc(Cl)cc2)CC1 | 22% | 38% | 37% | –
23 | CC(C)c1ccc(NC2CCN(C(=O)/C=C/c3ccc4c(c3)OCO4)CC2)cc1 | 0% | 28% | 27% | –
24 | COc1ccc(NC2CCN(C(=O)/C=C/c3ccccc3)CC2)cc1 | 15% | 21% | 7% | –
25 | COc1cc(/C=C/C(=O)N2CCC(Nc3cccc(F)c3)CC2)ccc1O | 0% | 29% | 4% | –
26 | COc1ccc(NC2CCN(C(=O)/C=C/c3ccc(O)c(OC)c3)CC2)cc1 | 4% | 0% | 0% | –
27 | COc1ccc(NC2CCN(C(=O)/C=C/c3ccc4c(c3)OCCCO4)CC2)cc1 | 0% | 30% | 0% | 4.30
28 | CC(C)c1ccc(NC2CCN(C(=O)/C=C/c3ccc4c(c3)OCCO4)CC2)cc1 | 26% | 29% | 10% | –
